Measured values taken from patent US8163793B2, “Proline derivatives” (Hoffman-La Roche Inc., priority 2009, dated 2012).

Tests used:
Cathepsin S = Cathepsin S (UniProt P25774); experiment: Cathepsin enzyme inhibition assay (fluorogenic peptide substrate Z-Val-Val-Arg-AMC), Cathepsin S; type: biochemical, human and mouse; conditions: enzyme 1 nM, substrate 20 μM, pH 6.5; read-out: CatS IC50
Procedure, shortened: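 Human or mouse cathepsin S (1 nM) was run in 100 mM potassium phosphate pH 6.5 with 5 mM EDTA, 0.001% Triton X-100 and 5 mM DTT. The rise in AMC fluorescence from cleavage was measured, and IC50 values were calculated by standard methods and expressed in μM.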

Cat L = Cat L (UniProt P07711); experiment: Cathepsin enzyme inhibition assay (fluorogenic peptide substrate Z-Val-Val-Arg-AMC), Cathepsin L; type: biochemical, human and mouse; conditions: enzyme 1 nM, substrate 20 μM, pH 6.5; read-out: CatL IC50
Procedure, shortened: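 Cathepsin L at 1 nM was mixed with compound, then started with 20 μM Z-Val-Val-Arg-AMC in pH 6.5 potassium phosphate with EDTA, Triton X-100 and 5 mM DTT. AMC fluorescence (ex 360/em 465 nm) was followed over 20 min. IC50 is given in μM.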

| SMILES | IC50 (Cathepsin S) [nM] | IC50 (Cat L) [nM] |
| --- | --- | --- |
| CC(C)(C)OC(=O)N1C[C@H](S(=O)(=O)c2ccc(N3CCC(F)(F)CC3)cc2Cl)C[C@H]1C(=O)NC1(C#N)CC1 [Example 152, (2S,4R)-4-[2-Chloro-4-(4,4-difluoro-piperidin-1-yl)-benzenesulfonyl]-2-(1-cyano-cyclopropylcarbamoyl)-pyrrolidine-1-carboxylic acid tert.-butyl ester] | 2.2 | 30800 |
| CC(C)(C)OC(=O)N1C[C@H](S(=O)(=O)c2ccc(N3CCC(C(F)(F)F)CC3)cc2Cl)C[C@H]1C(=O)NC1(C#N)CC1 [Example 153, (2S,4R)-4-[2-Chloro-4-(4-trifluoromethyl-piperidin-1-yl)-benzenesulfonyl]-2-(1-cyano-cyclopropylcarbamoyl)-pyrrolidine-1-carboxylic acid tert.-butyl ester] | 2.5 | 44000 |
| N#CC1(NC(=O)[C@@H]2C[C@@H](S(=O)(=O)c3ccc(N4CCC(C(F)(F)F)CC4)cc3Cl)CN2)CC1 [Example 154, (2S,4R)-4-[2-Chloro-4-(4-trifluoromethyl-piperidin-1-yl)-benzenesulfonyl]-pyrrolidine-2-carboxylic acid (1-cyano-cyclopropyl)-amide] | 1.8 | 6630 |
| N#CC1(NC(=O)[C@@H]2C[C@@H](S(=O)(=O)c3ccc(N4CCC(F)(F)CC4)cc3Cl)CN2)CC1 [Example 155, (2S,4R)-4-[2-Chloro-4-(4,4-difluoro-piperidin-1-yl)-benzenesulfonyl]-pyrrolidine-2-carboxylic Acid (1-cyano-cyclopropyl)-amide] | 2.5 | 8320 |
| N#CC1(NC(=O)[C@@H]2C[C@@H](S(=O)(=O)c3ccc(N4CCC(C(F)(F)F)CC4)cc3Cl)CN2C(=O)C2(C(F)(F)F)CC2)CC1 [Example 156, (2S,4R)-4-[2-Chloro-4-(4-trifluoromethyl-piperidin-1-yl)-benzenesulfonyl]-1-(1-trifluoromethyl-cyclopropanecarbonyl)-pyrrolidine-2-carboxylic acid (1-cyano-cyclopropyl)-amide] | 0.4 | 4400 |
| N#CC1(NC(=O)[C@@H]2C[C@@H](S(=O)(=O)c3ccc(N4CCC(F)(F)CC4)cc3Cl)CN2C(=O)C2(C(F)(F)F)CC2)CC1 [Example 157, (2S,4R)-4-[2-Chloro-4-(4,4-difluoro-piperidin-1-yl)-benzenesulfonyl]-1-(1-trifluoromethyl-cyclopropanecarbonyl)-pyrrolidine-2-carboxylic acid (1-cyano-cyclopropyl)-amide] | 0.4 | 4410 |

Results, then the molecule that gave them:

| IC50 (Cathepsin S) [nM] | IC50 (Cat L) [nM] | SMILES |
| --- | --- | --- |
| 120 | ≥ 25000 | CC(C)(C)OC(=O)N1C[C@@H](S(=O)(=O)c2ccccc2C(F)(F)F)C[C@H]1C(=O)NC1(C#N)CC1 [Example 158, (2S,4S)-2-(1-Cyano-cyclopropylcarbamoyl)-4-(2-trifluoromethyl-benzenesulfonyl)-pyrrolidine-1-carboxylic acid tert.-butyl ester] |
| 2610 | ≥ 25000 | N#CC1(NC(=O)[C@@H]2C[C@H](S(=O)(=O)c3ccccc3C(F)(F)F)CN2)CC1 [Example 159, (2S,4S)-4-(2-Trifluoromethyl-benzenesulfonyl)-pyrrolidine-2-carboxylic acid (1-cyano-cyclopropyl)-amide] |
| 6 | ≥ 25000 | COc1ccc(N2C[C@H](S(=O)(=O)c3ccccc3C(F)(F)F)C[C@H]2C(=O)NC2(C#N)CC2)cc1 [Example 160, (2S,4R)-1-(4-Methoxy-phenyl)-4-(2-trifluoromethyl-benzenesulfonyl)-pyrrolidine-2-carboxylic Acid (1-cyano-cyclopropyl)-amide] |
| 0.4 | 6070 | N#CC1(NC(=O)[C@@H]2C[C@@H](S(=O)(=O)c3ccc(N4CCOCC4)cc3Cl)CN2C(=O)C2(C(F)(F)F)CC2)CC1 [Example 161, (2S,4R)-4-(2-Chloro-4-morpholin-4-yl-benzenesulfonyl)-1-(1-trifluoromethyl-cyclopropanecarbonyl)-pyrrolidine-2-carboxylic acid (1-cyano-cyclopropyl)-amide] |
